Measured values published in patent US11578078B2, “Heterocyclic RIP1 inhibitory compounds” (Rigel Pharmaceuticals, Inc., priority 2019, dated 2023).

Assay: in vivo pharmacokinetics, plasma and brain exposure
Parameters: species or system rodents

SMILES	Ratio (Brain/Plasma) (brain AUC0-6 / plasma AUC0-6)	PLASMA CI	BRAIN AUC0-6 (brain)	Kp (rodents, brain AUC0-6 / plasma AUC0-6, read-out: Ratio (Brain/Plasma))
CN1C(=O)[C@@H](NC(=O)c2nn(Cc3ccccc3)cc2F)COc2ccc(N3CCC4(CCOCC4)C3)cc21 [Compound I-1, (S)-1-benzyl-4-fluoro-N-(5-methyl-4-oxo-7-(8-oxa-2-azaspiro[4.5]decan-2-yl)-2,3,4,5-tetrahydrobenzo[b][1,4]oxazepin-3-yl)-1H-pyrazole-3-carboxamide]	0.46	16.4	–	–
CN1C(=O)[C@@H](NC(=O)c2nn(Cc3ccccc3)cc2F)COc2ccc(N3CC4(CCOCC4)C3)cc21 [Compound I-2, (S)-1-benzyl-4-fluoro-N-(5-methyl-4-oxo-7-(7-oxa-2-azaspiro[3.5]nonan-2-yl)-2,3,4,5-tetrahydrobenzo[b][1,4]oxazepin-3-yl)-1H-pyrazole-3-carboxamide]	–	57.7	157	0.56
CN1C(=O)[C@@H](NC(=O)n2cc(Cc3ccc(F)cc3)cn2)COc2ccc(N3CC4(CCOCC4)C3)cc21 [Compound I-3, (S)-4-(4-fluorobenzyl)-N-(5-methyl-4-oxo-7-(7-oxa-2-azaspiro[3.5]nonan-2-yl)-2,3,4,5-tetrahydrobenzo[b][1,4]oxazepin-3-yl)-1H-pyrazole-1-carboxamide]	0.93	19.0	–	–
